Experimental data reported in patent US9593305B2, “Differentiation of pluripotent stem cells” (Janssen Biotech, Inc., priority 2008, dated 2017).

Experiments:
[1] = test system: H1 human embryonic stem cells; test: Step-wise differentiation, high content analysis of SOX17, PDX1, CDX2, insulin, glucagon (Example 12); type: cell-based
Experimental: The assay was initiated by aspirating the culture medium from each well and adding back an aliquot (0.5 ml) of test medium. Test conditions for the first step of differentiation were conducted over a three-day period, feeding daily by aspirating and replacing the medium from each well with fresh test medium. On the first day of assay, 100 ng/ml activin A (PeproTech; Cat #120-14) or 200 ng/ml GDF-8 (R&D Systems, Cat #788-G8) was added to respective assay wells where each growth factor was diluted into RPMI-1640 medium (Invitrogen; Cat #22400) with 1% Albumin Bovine Fraction V, Fatty Acid Free (FAF BSA) (MP Biomedicals, Inc; Cat 152401), 1% Probumin (Millipore; Cat #81-068-3) and 20 ng/ml Wnt3a (R&D Systems; Cat #1324-WN/CF). On the second day of assay, 100 ng/ml activin A or 200 ng/ml GDF-8 was diluted into RPMI-1640 medium supplemented with 2% FAF BSA without Wnt3a. In some test samples using GDF-8, Wnt3a was replaced with a either Compound 34 or Compound 56 at a concentration of 2.5 μM, and either Compound 34 or Compound 56 was added daily during all three days of definitive endoderm differentiation. At the conclusion of the first step of differentiation, cells from some wells were harvested for flow cytometry analysis to evaluate levels of CXCR4, a marker of definitive endoderm formation. […]

[2] = test system: H1 human embryonic stem cells; test: Single-cell monolayer assay with EGF/FGF4, serum free, no activin A (Example 10, Table 10); type: cell-based; settings: No AA (without Wnt3a); FGF(100 ng/ml); EGF(100 ng/ml)

Compound	normalized protein levels of insulin and glucagon after step 5 ([1]; GDF-8 versus activin A treatment groups in step 1)	normalized Pdx1 and Cdx2 protein expression after step 3 ([1]; GDF-8 with Wnt3a or with a compound in step 1)	Sox17 Expression, Average Total Intensity [2]
GDF-8: growth factor GDF-8, also known as myostatin, member of the TGF-β family	equivalent expression between the Activin A and GDF-8 treatment groups	equivalent levels of PDX1 and CDX2	–
O=C1CCN2CCN(CC2)Cc2cc(Cl)cc(c2)Nc2ncnc(n2)-c2cncc(c2)CCCN1 [Compound 34, 5-Chloro-1,8,10,12,16,22,26,32-octaazapentacyclo[24.2.2.1˜3.7˜0.1˜9,13˜0.1˜14.18˜]tritriaconta-3(33), 4,6,9(32), 10,12,14(31), 15,17-nonaen-23-one]	–	–	1.13E+08
